From patent publication US9150546B2, “Triazine derivative and pharmaceutical composition comprising the same” (SHIONOGI & CO., LTD., priority 2009, dated 2015) come the findings set out here.

The experiment has as its target human P2X3 receptor (Homo sapiens (Human), UniProt P56373). Nature of the experiment: P2X3 receptor inhibition, ATP-evoked Fluo-3 fluorescence (FDSS 3000). The conditions noted are these: C6BU-1 cell transfected with human P2X3 receptor gene. The class given is cell-based.

SMILES strings stand for the structures.

The term IC50 denotes the midpoint of a concentration-inhibition curve.

Sequence of human P2X3 receptor (P56373 whole entry): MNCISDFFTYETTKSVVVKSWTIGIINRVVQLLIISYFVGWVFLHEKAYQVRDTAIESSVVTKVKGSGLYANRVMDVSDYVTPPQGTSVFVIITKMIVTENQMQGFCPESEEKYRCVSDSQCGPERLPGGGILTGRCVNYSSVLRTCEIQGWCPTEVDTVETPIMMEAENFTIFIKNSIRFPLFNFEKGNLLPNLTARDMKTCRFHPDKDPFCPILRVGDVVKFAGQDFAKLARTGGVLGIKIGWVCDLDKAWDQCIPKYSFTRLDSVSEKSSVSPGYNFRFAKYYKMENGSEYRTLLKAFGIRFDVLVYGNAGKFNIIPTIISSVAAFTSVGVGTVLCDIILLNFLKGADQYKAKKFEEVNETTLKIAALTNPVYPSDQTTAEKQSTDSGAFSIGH

For `CC(C)Oc1ccc(Nc2nc(=O)n(CCCO)c(=O)n2Cc2ccc(Cl)cc2)cc1Cl` [I-362], the half-inhibitory concentration (IC50) stood at 7 nM.

`CC(C)Oc1ccc(Nc2nc(=O)n(CC3(CO)CC3)c(=O)n2Cc2ccc(Cl)cc2)cc1F` [I-335]: the IC50 is 7 nM.

Consider `Cc1ccc(Cn2c(=O)n(CCCC(=O)O)c(=O)[nH]/c2=N\c2ccc(OC(C)C)c(C)c2)cc1` [I-525], for which the midpoint of inhibition, the IC50, lay at 54 nM.

Consider `CC(C)Oc1ccc(/N=c2\[nH]c(=O)n(CC(C)(C)C(=O)O)c(=O)n2Cc2ccc(Cl)cc2)cc1` [I-541], for which inhibition was half-maximal at 58 nM (IC50).

Molecule `CC(C)Oc1ccc(/N=c2\[nH]c(=O)n([C@@H](C)CC(=O)O)c(=O)n2Cc2ccc(Cl)cc2)cc1Cl` [I-526] showed a half-inhibitory concentration (IC50) of 24 nM.

Turning to `CC(C)Oc1ccc(Nc2nc(=O)n(CC3CCOCC3)c(=O)n2Cc2ccc(Cl)cc2)cc1F` [I-275], the IC50 came out at 21 nM.

As to `CCOc1ccc(Nc2nc(=O)n(CC(CO)CO)c(=O)n2Cc2ccc(Cl)cc2)cc1` [I-371], the midpoint of inhibition, the IC50, lay at 63 nM.

`COC(=O)C(C)(C)Cn1c(=O)[nH]/c(=N\c2ccc3oc(C)nc3c2)n(Cc2ccc(Cl)cc2)c1=O` [I-488] had a concentration for half-maximal inhibition (IC50) of 124 nM.

For the molecule `COC(=O)C(C)(C)Cn1c(=O)[nH]/c(=N\c2ccc3c(ccn3CC(C)C)c2)n(Cc2ccc(Cl)cc2)c1=O` [I-506], inhibition was half-maximal at 279 nM (IC50).

For the molecule `CC(C)Oc1ccc(Nc2nc(=O)n(C(CO)CO)c(=O)n2Cc2ccc(Cl)cc2)cc1F` [I-286], the IC50 amounted to 277 nM.

Take `CC(C)Oc1ccc(/N=c2\[nH]c(=O)n([C@H](C)CC(=O)O)c(=O)n2Cc2ccc(Cl)cc2)cc1F` [I-562]: inhibition was half-maximal at 27 nM (IC50).

On to `COC(=O)C(C)(C)Cn1c(=O)[nH]/c(=N\c2ccc(OC(C)C)c(C)c2)n(Cc2ccc(Cl)cc2)c1=O` [I-431], for which the IC50 turned out to be 4 nM.

`Cc1cc(/N=c2\[nH]c(=O)n(CC(C)(C)C(=O)O)c(=O)n2Cc2ccc(Cl)cc2)ccc1OC(C)C` [I-432]: half-maximal inhibition (IC50) required 26 nM.

On to `CC(C)CNC(=O)c1ccc(Nc2nc(=O)n(C(C)C)c(=O)n2Cc2ccc(Cl)cc2)cc1` [I-256], for which 867 nM corresponded to half-maximal inhibition (IC50).

`CCC[S+]([O-])c1ccc(Nc2nc(=O)n(CCO)c(=O)n2Cc2ccc(Cl)cc2)cc1` (centres unmarked) [I-385] yielded a half-maximal inhibitory concentration (IC50) of 908 nM.

Consider `CCOc1ccc(Nc2nc(=O)n(C[C@H](C)C(=O)OC)c(=O)n2Cc2ccc(Cl)cc2)cc1C` [I-532], for which it took 29 nM to reach half-maximal inhibition (IC50).

Regarding `O=c1nc(Nc2ccc(OC(F)(F)F)cc2)n(Cc2ccc(Cl)cc2)c(=O)n1CCO` [I-383], it took 532 nM to reach half-maximal inhibition (IC50).

The molecule `O=c1nc(Nc2cccc(C(F)(F)F)c2)n(Cc2ccc(Cl)cc2)c(=O)n1CCO` [I-313] returned an IC50 of 178 nM.

Molecule `CC(C)Oc1ccc(Nc2nc(=O)n(CCC(=O)O)c(=O)n2CC2CCCCC2)cc1Cl` [I-382] displayed an IC50 of 96 nM.

On to `COc1ccc(Cn2c(=O)nc(Nc3ccc(OC(C)C)c(F)c3)n(Cc3ccc(Cl)cc3)c2=O)cc1` [I-343], for which inhibition was half-maximal at 21 nM (IC50).

`CCOc1ccc(Nc2nc(=O)n(C[C@H](C)C(=O)OC)c(=O)n2Cc2ccc(Cl)cc2)cc1Cl` [I-533] returned an IC50 of 10 nM.

Molecule `Cc1ccc(Cn2c(=O)n(CC(=O)NCC(=O)O)c(=O)[nH]/c2=N\c2ccc(OC(C)C)c(F)c2)cc1` [I-416] showed a concentration for half-maximal inhibition (IC50) of 35 nM.

On to `Cc1ccc(Cn2c(=O)n(CC(=O)NC(CO)CO)c(=O)[nH]/c2=N\c2ccc(OC(C)C)c(F)c2)cc1` [I-414], for which the IC50 came out at 7 nM.

With `CC(C)Oc1ccc(/N=c2\[nH]c(=O)n(CC(=O)NCC#N)c(=O)n2Cc2ccc(Cl)cc2)cc1Cl` [I-435], the IC50 amounted to 6 nM.

In the case of `COC(=O)C(C)(C)Cn1c(=O)[nH]/c(=N\c2ccc(OC(C)C)c(F)c2)n(Cc2ccc(Cl)cc2)c1=O` [I-403], the 50% inhibitory concentration (IC50) turned out to be 15 nM.

On to `CC(C)Oc1ccc(Nc2nc(=O)n(CCNC(=O)NCCO)c(=O)n2Cc2ccc(Cl)cc2)cc1F` [I-390], for which inhibition was half-maximal at 67 nM (IC50).

For `CCOc1ccc(/N=c2\[nH]c(=O)n(CC(C)(C)C(=O)OC)c(=O)n2Cc2ccc(Cl)cc2)cc1C` [I-462], the IC50 was found to be 4 nM.

Consider `CC(C)Oc1ccc(/N=c2\[nH]c(=O)n(C[C@@H](C)C(=O)O)c(=O)n2Cc2ccc(Cl)cc2)cc1Cl` [I-460], for which half-maximal inhibition (IC50) was put at 16 nM.

`COC(=O)c1ccc(Nc2nc(=O)n(C(C)C)c(=O)n2Cc2ccc(F)cc2)cc1Cl` [I-238]: inhibition was half-maximal at 658 nM (IC50).

`CC(C)n1c(=O)nc(Nc2cccc(OC(F)(F)F)c2)n(Cc2ccc(F)cc2)c1=O` [I-181] displayed an IC50 of 985 nM.

The molecule `Cc1cc(/N=c2\[nH]c(=O)n(C[C@H](C)C(=O)O)c(=O)n2CC2CCCCC2)ccc1OC(C)C` [I-559] displayed an IC50 of 97 nM.

With `CCOc1ccc(/N=c2\[nH]c(=O)n(CC(C)(C)C(=O)OC)c(=O)n2Cc2ccc(Cl)cc2)cc1Cl` [I-441], the IC50 was 11 nM.

As to `CCOc1ccc(/N=c2\[nH]c(=O)n(CC(C)(C)C(=O)O)c(=O)n2Cc2ccc(Cl)cc2)cc1C` [I-465], the IC50 turned out to be 57 nM.

Molecule `CC(C)Oc1ccc(Nc2nc(=O)n(CCN3C(=O)CNC3=O)c(=O)n2Cc2ccc(Cl)cc2)cc1F` [I-391] registered an IC50 of 133 nM.

Consider `CC(C)Oc1ccc(Nc2nc(OCC(CO)CO)nc(=O)n2Cc2ccc(Cl)cc2)cc1F` [II-008], for which half-maximal inhibition (IC50) was put at 943 nM.

As for `Cc1ccc(/N=c2\[nH]c(=O)n(CC(C)(C)C(=O)O)c(=O)n2Cc2ccc(Cl)cc2)cc1C` [I-464], the IC50 was determined as 564 nM.

Regarding `Cc1ccc(Cn2c(=O)n(CC(C)(C)C(=O)O)c(=O)[nH]/c2=N\c2ccc(OC(C)C)c(Cl)c2)cc1` [I-408], the IC50 worked out at 10 nM.

As for `O=c1nc(Nc2ccc(N3CCCCC3)cc2)n(Cc2ccc(Cl)cc2)c(=O)n1CCO` [I-311], the IC50 amounted to 142 nM.

Consider `CCCn1ccc2cc(/N=c3\[nH]c(=O)n(CC(C)(C)C(=O)OC)c(=O)n3Cc3ccc(Cl)cc3)ccc21` [I-507], for which 301 nM corresponded to half-maximal inhibition (IC50).

Regarding `COC(=O)[C@@H](C)Cn1c(=O)[nH]/c(=N\c2ccc(OC(C)C)c(F)c2)n(Cc2ccc(C)cc2)c1=O` [I-515], the IC50 was determined as 6 nM.

As to `CC(C)Oc1ccc(Nc2nc(=O)n(CCO)c(=O)n2Cc2ccc(Cl)cc2)cc1Cl` [I-351], 15 nM corresponded to half-maximal inhibition (IC50).

For the molecule `CCOC(=O)COc1ccc(Nc2nc(=O)n(C(C)C)c(=O)n2Cc2ccc(Cl)cc2)cc1Cl` [I-241], the half-maximal inhibitory concentration (IC50) came out at 447 nM.

`COC(=O)CNC(=O)Cn1c(=O)[nH]/c(=N\c2ccc(OC(C)C)c(F)c2)n(Cc2ccc(Cl)cc2)c1=O` [I-397] came in with an IC50 of 19 nM.

As for `CC(C)n1c(=O)nc(Nc2ccc(Oc3ccccc3)cc2)n(Cc2ccc(F)cc2)c1=O` [I-128], inhibition was half-maximal at 840 nM (IC50).

Molecule `CC(C)c1cccc(Nc2nc(=O)n(CCO)c(=O)n2Cc2ccc(Cl)cc2)c1` [I-378] had an IC50 of 347 nM.

Molecule `CC(C)Oc1ccc(Nc2nc(=O)n(Cc3ccccn3)c(=O)n2Cc2ccc(Cl)cc2)cc1F` [I-300] returned a half-maximal inhibitory concentration (IC50) of 25 nM.

`CCOc1ccc(/N=c2\[nH]c(=O)n(C[C@H](C)C(=O)O)c(=O)n2Cc2ccc(Cl)cc2)cc1` [I-535]: half-maximal inhibition (IC50) required 52 nM.

In turn, `O=c1nc(Nc2cccc(C(F)(F)F)c2)n(Cc2ccc(Cl)cc2)c(=O)n1CCCO` [I-357] yielded an IC50 of 47 nM.

`CC(C)Oc1ccc(Nc2nc(=O)n(CC3CC3)c(=O)n2Cc2ccc(Cl)cc2)cc1F` [I-271] gave an IC50 of 32 nM.

In the case of `C=CCn1c(=O)nc(Nc2ccc(OC(C)C)c(F)c2)n(Cc2ccc(Cl)cc2)c1=O` [I-346], the IC50 came out at 16 nM.

In the case of `CC(C)Oc1ccc(Nc2nc(=O)n(CCOC3CCCCO3)c(=O)n2Cc2ccc(Cl)cc2)cc1Cl` (centres unmarked) [I-350], half-maximal inhibition (IC50) required 10 nM.

With `Cc1cc2cc(/N=c3\[nH]c(=O)n(C[C@H](C)C(=O)O)c(=O)n3Cc3ccc(Cl)cc3)ccc2o1` [I-540], the IC50 was 27 nM.

Regarding `Cc1ccc(Cn2c(Nc3cccc(C(F)(F)F)c3)nc(=O)n(C(C)(C)C)c2=O)cc1` [I-097], the IC50 was 505 nM.

On to `CC(C)Oc1ccc(Nc2nc(=O)n(CCC(=O)NCCO)c(=O)n2Cc2ccc(Cl)cc2)cc1F` [I-352], for which the IC50 was 36 nM.

The molecule `CCOc1ccc(/N=c2\[nH]c(=O)n(CC(C)(C)C(=O)O)c(=O)n2Cc2ccc(Cl)cc2)cc1` [I-542] returned an IC50 of 96 nM.

Turning to `CC(C)Oc1ccc(/N=c2\[nH]c(=O)n(CC3(C(=O)O)CC3)c(=O)n2Cc2ccc(Cl)cc2)cc1Cl` [I-425], the IC50 was 16 nM.

`CC(C)Oc1ccc(/N=c2\[nH]c(=O)n(C[C@@H](C)C(=O)O)c(=O)n2Cc2ccc(Cl)cc2)cc1` [I-483] had an IC50 of 100 nM.

As to `CCOC(=O)CCn1c(=O)nc(Nc2ccc(OC(C)C)c(Cl)c2)n(Cc2ccc(Cl)cc2)c1=O` [I-354], the midpoint of inhibition, the IC50, lay at 8 nM.

In turn, `Cc1ccc(Cn2c(=O)n(CC(=O)NC(C)(C)C(=O)O)c(=O)[nH]/c2=N\c2ccc(OC(C)C)c(F)c2)cc1` [I-415] returned an IC50 of 314 nM.

In turn, `CC(C)n1c(=O)nc(Nc2ccc(C(=O)NCC3CC3)cc2)n(Cc2ccc(Cl)cc2)c1=O` [I-258] displayed an IC50 of 683 nM.

`O=c1nc(Nc2ccc(OC3CCCC3)c(Cl)c2)n(Cc2ccc(Cl)cc2)c(=O)n1CCO` [I-374] gave an IC50 of 80 nM.

With `COC(=O)[C@@H](C)Cn1c(=O)[nH]/c(=N\c2ccc(OC(C)C)c(F)c2)n(Cc2ccc(Cl)cc2)c1=O` [I-453], half-maximal inhibition (IC50) was put at 5 nM.

As to `O=c1nc(Nc2ccc(OC(F)F)cc2)n(Cc2ccc(Cl)cc2)c(=O)n1CCCO` [I-360], the IC50 is 148 nM.

The molecule `Cc1ccc(Cn2c(=O)n(CCCC(=O)O)c(=O)[nH]/c2=N\c2ccc3oc(C)cc3c2)cc1` [I-520] yielded an IC50 of 80 nM.

In turn, `COC(=O)[C@@H](C)Cn1c(=O)[nH]/c(=N\c2ccc(OC(C)C)c(Cl)c2)n(CC2CCCCC2)c1=O` [I-548] displayed an IC50 of 12 nM.

In turn, `CCOC(=O)CCCn1c(=O)[nH]/c(=N\c2ccc(OC(C)C)c(C)c2)n(Cc2ccc(C)cc2)c1=O` [I-521] displayed a half-inhibitory concentration (IC50) of 4 nM.

With `CC(C)Oc1ccc(/N=c2\[nH]c(OCC(=O)O)nc(=O)n2Cc2ccc(Cl)cc2)cc1Cl` [II-009], the half-inhibitory concentration (IC50) was 34 nM.

`CC(C)Oc1ccc(Nc2nc(=O)n(C(C)C)c(=O)n2Cc2ccc(F)cc2)cc1C#N` [I-227]: the IC50 came to 970 nM.

As to `O=c1nc(Nc2cccc(C(F)(F)F)c2)n(Cc2ccc(Cl)cc2)c(=O)n1CC(CO)CO` [I-367], the IC50 was determined as 40 nM.

`CC(C)Oc1ccc(Nc2nc(=O)n(CCN)c(=O)n2Cc2ccc(Cl)cc2)cc1F` [I-290] came in with a 50% inhibitory concentration (IC50) of 266 nM.

As to `CC(C)Cc1ccc(Nc2nc(=O)n(CC(CO)CO)c(=O)n2Cc2ccc(Cl)cc2)cc1` [I-366], the IC50 was determined as 46 nM.
